Source: PubChem BioAssay (NCI)
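Dose response: 5 concentrations. Exposure: 48 h. Format: 96-well plates. Endpoint: linear interpolation; highest concentration if not reached. GI50 is the concentration that inhibits growth by half. TGI marks complete inhibition of growth.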

Key:
Assay in all cases: growth of human tumour cells (NCI), 48 h
[1] = tested on: NCI-H23 lung
[2] = tested on: SW-620 colon
[3] = tested on: MOLT-4 leukemia
[4] = tested on: CAKI-1 renal
[5] = tested on: OVCAR-4 ovarian
[6] = tested on: 786-0 renal
[7] = tested on: OVCAR-8 ovarian
[8] = tested on: U251 CNS
[9] = tested on: OVCAR-5 ovarian
[10] = tested on: HCC-2998 colon

Row | SMILES | GI50 [1] | TGI [1] | GI50 [2] | TGI [2] | GI50 [3] | TGI [3] | GI50 [4] | TGI [4] | GI50 [5] | TGI [5] | GI50 [6] | TGI [6] | GI50 [7] | TGI [7] | GI50 [8] | TGI [8] | GI50 [9] | TGI [9] | GI50 [10] | TGI [10]
1 | CCc1ccccc1NC(=O)c1sc2nc3c(cc2c1N)C(=O)CCC3 | 0.711 µM | > 100 µM | 0.329 µM | > 100 µM | 5.29 µM | > 100 µM | 0.504 µM | > 100 µM | 1.54 µM | > 100 µM | 0.722 µM | > 74.2 µM | 2.88 µM | > 100 µM | 0.608 µM | 51.7 µM | 1.96 µM | > 100 µM | 1.67 µM | > 100 µM
2 | C=CCSS/C=C/CS(=O)CC=C (stereo not given) |  | > 100 µM |  | 22.7 µM |  | > 29.5 µM |  | > 62.7 µM |  | 99.3 µM |  | 33.4 µM |  | 37.1 µM |  | > 100 µM |  | 98.8 µM |  | > 100 µM
3 | COc1ccc(OC)c2c(/C=C/c3ccc(N(C)C)cc3)ccnc12 |  | > 10 µM |  | > 10 µM |  | > 10 µM |  | > 10 µM |  | > 10 µM |  | > 10 µM |  | > 10 µM |  | > 10 µM |  | > 10 µM |  | > 10 µM
4 | COc1ccc(C(=O)COc2cccc(/C=C3\Oc4ccc5ccccc5c4C3=O)c2)cc1 | 3.38 µM | 16.8 µM | 1.87 µM | 3.77 µM | 2.85 µM | 21.6 µM | 10.7 µM | 23.5 µM | 5.08 µM | 17.5 µM | 2.22 µM | 6.73 µM | 4.57 µM | 14.9 µM | 6.42 µM | 19.6 µM | 12.7 µM | 25.3 µM | 15.3 µM | 28.8 µM
5 | COc1cccc(-n2c3nc(=O)n(C)c(=O)c-3nc3ccccc32)c1 |  | 62 µM |  | 51.6 µM |  | 40.6 µM |  | > 100 µM |  | 25.2 µM |  | > 100 µM |  | 49.6 µM |  | 38.2 µM |  | 37.2 µM |  | 38.9 µM
6 | COc1ccc(C2c3cc(OC)c(OC)cc3C(Cc3ccc([N+](=O)[O-])cc3)C2c2ccc([N+](=O)[O-])cc2)cc1OC (stereo not given) |  | > 100 µM |  | > 100 µM |  | > 100 µM |  | > 100 µM |  | > 100 µM |  | > 100 µM |  | > 100 µM |  | > 100 µM |  | > 100 µM |  | > 100 µM
7 | COC(=O)/C(C)=C/[N+](=O)[O-] |  | 41.2 µM |  | 26.8 µM |  | 39.4 µM |  | 8.14 µM |  | 33.5 µM |  | 32.3 µM |  | 63.3 µM |  | 32.5 µM |  | 35.4 µM |  | 32.1 µM
8 | Cc1cn2c(/C=C3\C(=O)N(C)c4ccc(O)cc43)c(C)nc2s1 | 11.9 µM | > 100 µM | 3.67 µM | > 100 µM | 4.71 µM | 34.7 µM | 5.13 µM | 45.8 µM | 20.5 µM | > 100 µM | 6.41 µM | > 100 µM | 11.3 µM | > 100 µM | 5.64 µM | > 100 µM | 27.8 µM | > 100 µM | 7.37 µM | 36 µM
9 | Cc1c(C2=C(Br)C(=O)N(C)C2=O)c(=O)n(C)c(=O)n1C |  | 42.9 µM |  | > 100 µM |  | 55.1 µM |  | 34.8 µM |  | > 100 µM |  | 32.1 µM |  | > 100 µM |  | > 100 µM |  | > 100 µM |  | 53.3 µM
10 | Cc1cc(C2CC(O)C(CO)O2)cc2c(=O)[nH]c(N)nc12 (stereo not given) | > 100 µM | > 100 µM | > 100 µM | > 100 µM | > 100 µM | > 100 µM | > 100 µM | > 100 µM | > 100 µM | > 100 µM | > 100 µM | > 100 µM | > 100 µM | > 100 µM | > 100 µM | > 100 µM | > 100 µM | > 100 µM | > 100 µM | > 100 µM
11 | COc1cc2c3c(n(CCCN(C)C)c(=O)c2cc1OC)-c1ccccc1C3=O | 10.6 µM | > 72 µM | 2.11 µM | 66 µM | 0.463 µM | 1.73 µM | 12.7 µM | > 77.9 µM | 6.68 µM | 53.5 µM | 16 µM | 73.9 µM | 7.87 µM | > 100 µM | 12.2 µM | > 55.9 µM | > 91.6 µM | > 100 µM | 3.17 µM | 18.6 µM
12 | O=C(Nc1ccc(-n2cc(-c3ccncc3)c(-c3ccc(Cl)c(O)c3)n2)cc1)Nc1ccc(Cl)c(C(F)(F)F)c1 | 1.67 µM | 3.43 µM | 2.48 µM | 5.04 µM | 1.14 µM | 6.77 µM | 3.01 µM | 15.3 µM | 0.639 µM | 6.12 µM | 1.22 µM | 3.11 µM | 1.77 µM | 4.8 µM | 1.08 µM | 2.32 µM | 3.3 µM | 8.98 µM | 1.78 µM | 3.25 µM
